Laboratory results: PubChem BioAssay AID248 (DTP/NCI, 2004)
Several values for one entry are separate records, joined by “and”; a condition that tells them apart may be missing. Equal values may be shown once. Toxic doses and inconclusive results are not listed. No stated cut-off is given here; in the data, active means T/C of 150% or more; inactive means T/C below 125%.

Tested on: L1210 leukemia ip in BDF1 mice, survival T/C
Assay: NCI In Vivo Anticancer Drug Screen. Data for tumor model L1210 Leukemia (intraperitoneal) in B6D2F1 (BDF1) mice
Details: endpoint: mean survival time, higher = longer survival
In short: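 Tumor was transplanted into mice, which were then dosed with test compound or vehicle alone. Survival was recorded for each group, and the treated figure was expressed relative to the control figure.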

[1] = dose: 100.0 mg/kg/injection, schedule: Q01DX001 (ip), vehicle: Klucel (hydroxypropylcellulose) (HPC)
[2] = dose: 200.0 mg/kg/injection, schedule: Q01DX001 (ip), vehicle: Klucel (hydroxypropylcellulose) (HPC)
[3] = dose: 400.0 mg/kg/injection, schedule: Q01DX001 (ip), vehicle: Klucel (hydroxypropylcellulose) (HPC)
[4] = dose: 100.0 mg/kg/injection, schedule: Q04DX003 (ip), vehicle: Klucel (hydroxypropylcellulose) (HPC)
[5] = dose: 200.0 mg/kg/injection, schedule: Q04DX003 (ip), vehicle: Klucel (hydroxypropylcellulose) (HPC)
[6] = dose: 400.0 mg/kg/injection, schedule: Q04DX003 (ip), vehicle: Klucel (hydroxypropylcellulose) (HPC)
[7] = dose: 100.0 mg/kg/injection, schedule: Q04DX003 (ip), vehicle: saline with Tween-80
[8] = dose: 200.0 mg/kg/injection, schedule: Q04DX003 (ip), vehicle: saline with Tween-80
[9] = dose: 400.0 mg/kg/injection, schedule: Q04DX003 (ip), vehicle: saline with Tween-80
[10] = dose: 100.0 mg/kg/injection, schedule: Q04DX002 (ip), vehicle: saline with Tween-80
[11] = dose: 100.0 mg/kg/injection, schedule: Q01DX009 (ip), vehicle: Klucel (hydroxypropylcellulose) (HPC)
[12] = dose: 200.0 mg/kg/injection, schedule: Q01DX009 (ip), vehicle: Klucel (hydroxypropylcellulose) (HPC)
[13] = dose: 100.0 mg/kg/injection, schedule: Q01DX001 (ip), vehicle: carboxymethylcellulose (CMC)
[14] = dose: 200.0 mg/kg/injection, schedule: Q01DX001 (ip), vehicle: carboxymethylcellulose (CMC)
[15] = dose: 100.0 mg/kg/injection, schedule: Q01DX001 (ip), vehicle: saline with Tween-80
[16] = dose: 200.0 mg/kg/injection, schedule: Q01DX001 (ip), vehicle: saline with Tween-80
[17] = dose: 400.0 mg/kg/injection, schedule: Q01DX001 (ip), vehicle: saline with Tween-80
[18] = dose: 400.0 mg/kg/injection, schedule: Q01DX009 (ip), vehicle: Klucel (hydroxypropylcellulose) (HPC)
[19] = dose: 100.0 mg/kg/injection, schedule: Q01DX001 (ip), vehicle: saline
[20] = dose: 200.0 mg/kg/injection, schedule: Q01DX001 (ip), vehicle: saline
[21] = dose: 400.0 mg/kg/injection, schedule: Q01DX001 (ip), vehicle: saline
[22] = dose: 100.0 mg/kg/injection, schedule: Q04DX003 (ip), vehicle: acetone
[23] = dose: 200.0 mg/kg/injection, schedule: Q04DX003 (ip), vehicle: acetone
[24] = dose: 400.0 mg/kg/injection, schedule: Q04DX003 (ip), vehicle: acetone

Measured: T/C

Cc1nc(N)[nH]c(=O)c1CCCNc1cccc(C(F)(F)F)c1
inactive: [1] 92 % of control | [2] 92 % of control | [3] 97 % of control

O=[N+]([O-])c1cccc(/C=N/n2cn[nH]c2=S)c1
inactive: [4] 94 % of control | [5] 94 % of control | [6] 96 % of control

CCCNC(=O)Nc1cc(C(F)(F)F)ccc1Cl
inactive: dose: 100.0 mg/kg/injection, schedule: Q01DX009 (ip), vehicle: saline with Tween-80 98 % of control | [7] 97 % of control | dose: 200.0 mg/kg/injection, schedule: Q01DX009 (ip), vehicle: saline with Tween-80 88 % of control | [8] 103 % of control | dose: 400.0 mg/kg/injection, schedule: Q01DX009 (ip), vehicle: saline with Tween-80 87 % of control | [9] 108 % of control

O=C(CCl)OCCCl
inactive: dose: 25.0 mg/kg/injection, schedule: Q04DX002 (ip), vehicle: saline with Tween-80 95 % of control | dose: 50.0 mg/kg/injection, schedule: Q04DX002 (ip), vehicle: saline with Tween-80 103 % of control | [10] 93 % of control and 95 % of control

O=[N+]([O-])c1ccc(S)c(Cl)c1
inactive: dose: 12.5 mg/kg/injection, schedule: Q01DX009 (ip), vehicle: Klucel (hydroxypropylcellulose) (HPC) 104 % of control | dose: 25.0 mg/kg/injection, schedule: Q01DX009 (ip), vehicle: Klucel (hydroxypropylcellulose) (HPC) 104 % of control

C=CCN(CC=C)C(=S)NC(=O)c1ccccc1
inactive: [11] 110 % of control | [12] 104 % of control

CCCC1(C(=O)OCC)CCCC1=O (configuration not stated)
inactive: [13] 95 % of control | [14] 90 % of control | dose: 400.0 mg/kg/injection, schedule: Q01DX001 (ip), vehicle: carboxymethylcellulose (CMC) 92 % of control

COC(C)(C)C(N)C(=O)O (configuration not stated)
inactive: dose: 100.0 mg/kg/injection, schedule: Q01DX001 (ip), vehicle: other 102 % of control | dose: 100.0 mg/kg/injection, schedule: Q04DX003 (ip), vehicle: other 120 % of control | dose: 200.0 mg/kg/injection, schedule: Q01DX001 (ip), vehicle: other 102 % of control | dose: 200.0 mg/kg/injection, schedule: Q04DX003 (ip), vehicle: other 114 % of control | dose: 400.0 mg/kg/injection, schedule: Q01DX001 (ip), vehicle: other 102 % of control | dose: 400.0 mg/kg/injection, schedule: Q04DX003 (ip), vehicle: other 96 % of control

O=[N+]([O-])c1c[nH]c2[nH]cnc(=S)c12
inactive: [13] 102 % of control | [14] 87 % of control

CN(C)C(=S)Oc1ccc(O)cc1
inactive: [15] 102 % of control | [16] 97 % of control | [17] 100 % of control

C=CCN(CC=C)C(=O)C1C2CC3OC(=O)C1C3C2 (configuration not stated)
inactive: dose: 100.0 mg/kg/injection, schedule: Q04DX003 (ip), vehicle: saline 94 % of control and 104 % of control | dose: 200.0 mg/kg/injection, schedule: Q04DX003 (ip), vehicle: saline 109 % of control and 104 % of control | dose: 400.0 mg/kg/injection, schedule: Q04DX003 (ip), vehicle: saline 94 % of control and 102 % of control

CCCCCC[CH2][Sn]([CH2]CCCCCC)([CH2]CCCCCC)[CH2]CCCCCC
inactive: [11] 103 % of control | [12] 101 % of control | [18] 101 % of control

CC(CCl)OP(=O)(Cc1ccccc1)OC(C)CCl (configuration not stated)
inactive: [10] 91 % of control | dose: 200.0 mg/kg/injection, schedule: Q04DX002 (ip), vehicle: saline with Tween-80 98 % of control | dose: 400.0 mg/kg/injection, schedule: Q04DX002 (ip), vehicle: saline with Tween-80 98 % of control

Cc1cccc(Nc2cc(C)nc(N)n2)c1
inactive: dose: 25.0 mg/kg/injection, schedule: Q01DX Z (ip), vehicle: methylcellulose (MC) 105 % of control | dose: 50.0 mg/kg/injection, schedule: Q01DX Z (ip), vehicle: methylcellulose (MC) 100 % of control

O=C1C=CC(=O)c2cc3ccccc3cc21
inactive: [13] 102 % of control

N#Cc1nc2c3ccccc3c(N=NC(N)=S)c-2[nH]c1C#N
inactive: dose: 50.0 mg/kg/injection, schedule: Q04DX002 (ip), vehicle: Klucel (hydroxypropylcellulose) (HPC) 87 % of control | dose: 100.0 mg/kg/injection, schedule: Q04DX002 (ip), vehicle: Klucel (hydroxypropylcellulose) (HPC) 91 % of control | dose: 200.0 mg/kg/injection, schedule: Q04DX002 (ip), vehicle: Klucel (hydroxypropylcellulose) (HPC) 91 % of control

Clc1ccc(S/C=C/c2ccccc2)cc1
inactive: [1] 103 % of control | [11] 91 % of control | [4] 102 % of control | [2] 110 % of control | [12] 100 % of control | [5] 98 % of control | [3] 97 % of control | [18] 91 % of control | [6] 104 % of control

CCCCNC(=O)n1ncc2cc([N+](=O)[O-])c([N+](=O)[O-])cc21
inactive: [19] 103 % of control | [20] 97 % of control | [21] 101 % of control

CC1(C)CN(N=O)C(C)(C)CN1N=O
inactive: [22] 99 % of control | [23] 103 % of control | [24] 96 % of control

COc1ccc(C(=C2CCCCC2)c2ccc(OC)cc2)cc1
inactive: [15] 95 % of control | [16] 94 % of control | [17] 88 % of control

NC(N)=N/C(N)=N/NC(=O)c1ccncc1
inactive: dose: 66.0 mg/kg/injection, schedule: Q01DX Z (ip), vehicle: methylcellulose (MC) 100 % of control | dose: 93.0 mg/kg/injection, schedule: Q01DX Z (ip), vehicle: methylcellulose (MC) 89 % of control | dose: 140.0 mg/kg/injection, schedule: Q01DX Z (ip), vehicle: methylcellulose (MC) 91 % of control

CN(C)C=NCC1CCCO1 (configuration not stated)
inactive: [19] 97 % of control | [20] 90 % of control | [21] 97 % of control

CSCc1cccc(CO)c1
inactive: dose: 100.0 mg/kg/injection, schedule: Q01DX009 (ip), vehicle: acetone 101 % of control | [22] 98 % of control | dose: 200.0 mg/kg/injection, schedule: Q01DX009 (ip), vehicle: acetone 105 % of control | [23] 106 % of control | dose: 400.0 mg/kg/injection, schedule: Q01DX009 (ip), vehicle: acetone 97 % of control | [24] 109 % of control

COC(=O)c1cc(C)[nH]c(=O)c1CN
inactive: dose: 75.0 mg/kg/injection, schedule: Q01DX001 (ip), vehicle: water 104 % of control | dose: 150.0 mg/kg/injection, schedule: Q01DX001 (ip), vehicle: water 107 % of control

COc1ccc(CCNC2CC3CCC2(C)C3(C)C)cc1OC (configuration not stated)
inactive: [19] 100 % of control and 107 % of control | [20] 96 % of control | [21] 96 % of control

Cc1ncc2c(=O)n(-c3ccc([N+](=O)[O-])cc3)[nH]c2n1
inactive: [7] 108 % of control | [8] 100 % of control | [9] 108 % of control

O=C(NCCCl)Oc1cccc2c1CCCC2
inactive: [11] 87 % of control | [4] 103 % of control | [12] 97 % of control | [5] 100 % of control | [18] 100 % of control | [6] 100 % of control
